# Assay results reported in patent US20070219154A1, “Methods for preventing and/or treating a cell proliferative disorder” (priority 2005, published 2007).
# Experiments:
# Assay type in all cases: cell-based, human
# [1] = test system: pancreatic cancer cell line MiaPaCa2; assay: Soft agar assay, MiaPaCa2
# Experimental: (§1) Cell proliferation was ascertained by soft agar assay. In brief, cells were grown within a matrix of 1.2% soft agar that contained PAR-1 inhibitor at the appropriate concentration. Plates containing cells in the soft agar were incubated at 37° C. for approximately 2 weeks until cell colonies were visible. Cells were then stained by adding 1 mg/ml MTT in PBS and incubating at 37° C. for 1-2 hours. After which the staining solution was removed and plates incubated at 4° C. for 1-2 hours to resolidify agar before scanning.
# [2] = test system: glioma cancer cell line SF295; assay: Soft agar assay, SF295
# Experimental: as §1
# [3] = test system: ovarian cancer cell line SKOV-3; assay: Intracellular Ca2+ release (FLIPR) assay, SKOV-3; conditions: thrombin 0.1-100 nM, FIG. 14
# Experimental: (§2) As detailed below, intracellular Ca^2+ release was measured in various tumor cell lines treated with thrombin. Likewise, intracellular Ca^2+ release was measured in a subset of those tumor cell lines treated with thrombin and PAR-1 inhibitor Formula 2. In brief, cells were plated into a 96-well plate at a density of 4×10^4 cells per well and allowed to attach overnight at 37° C. prior to loading with Fluo-4AM. Cells were then incubated at 37° C. for 60 minutes. After washing the cells, thrombin as well as the appropriate concentration of PAR-1 inhibitor Formula 2 was added and cells incubated at 37° C. for 30 minutes prior to taking fluorescence readings.
# glioma cell line U373 [4] = assay: 14C-thymidine incorporation assay, U373; conditions: thrombin 0.001-1000 nM, 48 hours, FIG. 16
# Experimental: (§3) Cell growth proliferation was ascertained by measuring ^14C-thymidine incorporation in various cell lines treated with thrombin in the presence or absence of a PAR-1 inhibitor. In brief, 5×10^3 cells per well were seeded in a 96-well plate and incubated at 37° C. for 1 day. The cells were starved with serum-free medium for 1 day prior to treatment with serum-free media containing 0.5 μCi/ml ^14C-thymidine as well as PAR-1 inhibitor and/or thrombin (where applicable). The cells were then incubated at 37° C. for 48 hours prior to reading radioactivity on a beta counter (1450 Microbeta Plus, Liquid Scintillation Counter (Wallac Software, Perkin Elmer) using the program for ^14C counting on 96-well Cytostar-T scintillating microplate (Amersham Pharmacia Biotech, Piscataway, N.J.).
# [5] = test system: prostate cancer cell line PC-3; assay: Intracellular Ca2+ release (FLIPR) assay, PC-3; conditions: thrombin 0.1-100 nM, FIG. 14
# Experimental: as §2
# glioma cell line SF295 = assay: Intracellular Ca2+ release (FLIPR) assay, SF295; conditions: thrombin 0.1-100 nM, FIG. 14
# Experimental: as §2
# [6] = test system: pancreatic cell line MiaPaCa2; assay: Calcein AM assay, MiaPaCa2; conditions: 3 days, FIG. 18
# Experimental: (§4) Viability of cells was ascertained using the LIVE/DEAD Viability/Cytotoxicity calcein AM assay [Molecular Probes, technical bulletin MP03224] in the pancreatic cell line MiaPaCa2 and the pancreatic cancer cell line Panc1 following treatment with thrombin, or PAR-1 inhibitor in the presence or absence of thrombin (at a concentration of 10 nM). Calcein AM is a cell-permeant nonflouroescent molecule which is cleaved by esterases found within live cells to create the intensely fluorescent calcein. The polyanionic dye calcein is retained within live cells, producing an intense uniform green fluorescence which can be measured by a fluorescent multiwell plate reader to determine the actual number of live cells in each well. In brief, 1×10^4 cells per well were plated into a 96-well plate and allowed to attach overnight at 37° C. prior to treatment with serum-free media containing 10 nM thrombin as well as the appropriate concentration of PAR-1 inhibitor Formula 2 (5×10^−9; 1×10^−8; 5×10^−8; 1×10^−7; 5×10^−7; 1×10^−6; 5×10^−6; or 1×10^−5 M). Cells were then incubated at 37° C. for 3 days prior to adding Calcein AM reagent and reading fluorescence.
# [7] = test system: pancreatic cancer cell line MiaPaCa2; assay: Intracellular Ca2+ release (FLIPR) assay, MiaPaCa2; conditions: thrombin 0.1-100 nM, FIG. 14
# Experimental: as §2
# [8] = test system: pancreatic cancer cell line MiaPaCa2; assay: 14C-thymidine incorporation assay, MiaPaCa2; conditions: 48 hours
# Experimental: as §3
# glioma cell line SNB19 = assay: Intracellular Ca2+ release (FLIPR) assay, SNB19; conditions: thrombin 0.1-100 nM, FIG. 14
# Experimental: as §2
# glioma cell line T98G = assay: Intracellular Ca2+ release (FLIPR) assay, T98G; conditions: thrombin 0.1-100 nM, FIG. 14
# Experimental: as §2
# glioma cell line U373 [9] = assay: Intracellular Ca2+ release (FLIPR) assay, U373; conditions: thrombin 0.1-100 nM, FIG. 14
# Experimental: as §2
# glioma cell line U118MG = assay: Intracellular Ca2+ release (FLIPR) assay, U118MG; conditions: thrombin 0.1-100 nM, FIG. 14
# Experimental: as §2
# [10] = test system: pancreatic cancer cell line Panc1; assay: Calcein AM assay, Panc1; conditions: 3 days, FIG. 18
# Experimental: as §4
compound,measurement,setting,value
CCOC(=O)N[C@@H]1CC[C@@H]2[C@@H](C1)C[C@H]1C(=O)O[C@H](C)[C@H]1[C@H]2/C=C/c1ccc(-c2ccccc2C#N)cn1 [Formula 3],inhibition of cell proliferation (soft agar assay),"[1]; 0-10,000 nM, dose-dependent manner",inhibited
same,IC50,"[1]; Homo sapiens, MIA PaCa-2, 336 h, approximately 2 weeks, FIG. 20, read-out: IC50, cell proliferation (soft agar assay)",5.2 µM
same,anti-proliferative effects,[1]; at higher doses,modest
same,inhibition of cell proliferation (soft agar assay),"[2]; 0-30,000 nM, dose-dependent manner",inhibited
same,IC50,"[2]; Homo sapiens, SF-295, 336 h, approximately 2 weeks, FIG. 21, read-out: IC50, cell proliferation (soft agar assay)",6.1 µM
same,anti-proliferative effects,[2]; at higher doses,modest
thrombin,intracellular Ca2+ release stimulated by thrombin,[3],stimulates
same,thrombin-induced cell proliferation (14C-thymidine incorporation),glioma cell line U373 [4],dose-dependent
same,intracellular Ca2+ release stimulated by thrombin,[5],stimulates
same,intracellular Ca2+ release stimulated by thrombin,glioma cell line SF295,stimulates
same,thrombin-induced cell proliferation (calcein AM),[6],dose-dependent
same,intracellular Ca2+ release stimulated by thrombin,[7],stimulates
same,EC50,"[8]; read-out: EC50 of thrombin, cell proliferation (14C-thymidine incorporation)",0.014 nM
same,thrombin-induced cell proliferation (14C-thymidine incorporation),"[8]; thrombin 10^-4 to 10^2 nM, FIG. 17",dose-dependent
same,intracellular Ca2+ release stimulated by thrombin,glioma cell line SNB19,stimulates
same,intracellular Ca2+ release stimulated by thrombin,glioma cell line T98G,stimulates
same,intracellular Ca2+ release stimulated by thrombin,glioma cell line U373 [9],stimulates
same,intracellular Ca2+ release stimulated by thrombin,glioma cell line U118MG,stimulates
same,thrombin-induced cell proliferation (calcein AM),[10],minimal
